Laboratory results reported in patent US11840686B2, “Modulation of prekallikrein (PKK) expression” (Ionis Pharmaceuticals, Inc., priority 2013, dated 2023).
Strand notation (5' to 3'): a small letter for the sugar, then the base; units joined by * are phosphorothioate-linked, units joined directly phosphodiester-linked; [ ] holds rarer units or linkages, { } end groups; capitals alone tell only the bases. e = 2'-O-(2-methoxyethyl) (MOE); [5mC] = 5-methylcytosine; d = 2'-deoxy (DNA)

Test system: human PKK mRNA
Test: Antisense inhibition of human PKK mRNA in HepaRG cells, 5,000 nM (Example 2)
Assay type: cell-based
Outline: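 HepaRG cells (20,000/well) electroporated with 5,000 nM MOE gapmer (phosphorothioate backbone, 5-methylcytosines) and harvested after ~24 h. PKK mRNA measured by qRT-PCR with primer probe set RTS3454, normalized to RIBOGREEN total RNA; percent inhibition versus untreated cells.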

[1] = Table 13, human PKK mRNA in HepaRG cells, 5-10-5 gapmers
[2] = HepaRG cells, electroporation with 5,000 nM antisense oligonucleotide, approximately 24 hours, PKK mRNA by RT-PCR (RTS3454), relative to untreated control cells, Table 6 experiment
[3] = Table 8, HepaRG cells, electroporation with 5,000 nM antisense oligonucleotide, approx. 24 hours, PKK mRNA by RT-PCR (RTS3454), relative to untreated control cells
[4] = HepaRG cells, 5,000 nM antisense oligonucleotide, 5-10-5 gapmers, Table 16
[5] = human PKK mRNA in HepaRG cells, 5-10-5 gapmers, Table 14
[6] = HepaRG cells, electroporation, 5,000 nM antisense oligonucleotide, approx. 24 hours, primer probe set RTS3454, relative to untreated control cells, Table 12
[7] = HepaRG cells, 5,000 nM antisense oligonucleotide, 5-10-5 gapmers, Table 17
[8] = human PKK mRNA, HepaRG cells, 5-10-5 motif oligonucleotides targeting SEQ ID NO: 1 and 10
[9] = Table 7, HepaRG cells, electroporation with 5,000 nM antisense oligonucleotide, approx. 24 hours, PKK mRNA by RT-PCR (RTS3454), relative to untreated control cells
[10] = HepaRG cells, 5,000 nM antisense oligonucleotide, human PKK mRNA, Table 18
[11] = Table 9 experiment, HepaRG cells, 20,000 cells per well, electroporation with 5,000 nM antisense oligonucleotide, approx. 24 hours, PKK mRNA by RT-PCR (RTS3454), relative to untreated control cells
[12] = Table 10 experiment, HepaRG cells, 20,000 cells per well, electroporation with 5,000 nM antisense oligonucleotide, approx. 24 hours, PKK mRNA by RT-PCR (RTS3454), relative to untreated control cells

546780 (eA*eT*eA*e[5mC]*eT*dG*dG*d[5mC]*dT*dA*dA*dG*dT*d[5mC]*dA*eG*eG*e[5mC]*e[5mC]*e[5mC]; antisense) [compound 546780]
% inhibition [1]: 83%

546209 (antisense eG*e[5mC]*eT*eT*e[5mC]*dA*dG*dT*dG*dA*dG*dA*dA*dT*d[5mC]*e[5mC]*eA*eG*eA*eT) [compound 546209]
% inhibition [2]: 73%

547435 (antisense e[5mC]*eA*eA*eG*eA*dA*dG*dA*dG*dT*dT*dT*dG*dT*dT*e[5mC]*e[5mC]*eT*e[5mC]*e[5mC]) [compound 547435]
% inhibition [3]: 85%

546944 (eG*e[5mC]*e[5mC]*eA*e[5mC]*dT*dA*dA*d[5mC]*d[5mC]*d[5mC]*dA*d[5mC]*d[5mC]*dT*e[5mC]*eT*eT*eA*eA; antisense) [compound 546944]
% inhibition [4]: 42%

546857 (eT*eA*eT*eA*eA*d[5mC]*dT*dA*dT*dA*dA*d[5mC]*dA*dG*dT*eA*eT*e[5mC]*eA*e[5mC]; antisense) [compound 546857]
% inhibition [5]: 7%

546416 (e[5mC]*eT*eG*e[5mC]*eA*dG*dG*d[5mC]*dA*dA*dT*dA*dT*dT*dT*eT*eG*e[5mC]*eT*eT; antisense) [compound 546416]
% inhibition [6]: 62%

547723 (eT*eA*eG*eA*eA*dT*dG*dG*d[5mC]*dA*dG*dG*dG*dT*dT*e[5mC]*eT*eG*eT*eG; antisense) [compound 547723]
% inhibition [7]: 53%

546288 (antisense eG*eT*eT*eT*eG*dT*dT*d[5mC]*d[5mC]*dT*d[5mC]*d[5mC]*dA*dA*d[5mC]*eA*eA*eT*eG*e[5mC]) [compound 546288]
% inhibition [3]: 78%

546885 (eT*eA*eT*eG*eT*d[5mC]*dA*d[5mC]*dT*dG*dT*dA*d[5mC]*d[5mC]*dT*eA*eT*eA*eA*e[5mC]; antisense) [compound 546885]
% inhibition [8]: 46%

547714 (antisense e[5mC]*eT*eG*eT*e[5mC]*dT*dA*dA*d[5mC]*dT*dG*dG*d[5mC]*d[5mC]*dT*eG*eG*e[5mC]*eT*eG) [compound 547714]
% inhibition [4]: 19%

548763 (antisense e[5mC]*eT*e[5mC]*eT*dA*dA*d[5mC]*dA*dG*dT*dA*dT*d[5mC]*eA*e[5mC]*eT*eG) [compound 548763]
% inhibition (human PKK mRNA, HepaRG cells, 5,000 nM antisense oligonucleotide, Table 18): 44%

547600 (antisense eT*eT*eT*e[5mC]*e[5mC]*dT*dA*dT*dA*dA*d[5mC]*dT*dA*dT*dA*eA*e[5mC]*eA*eA*eT) [compound 547600]
% inhibition [5]: 26%

547692 (antisense e[5mC]*eA*e[5mC]*eT*eG*dT*dA*d[5mC]*d[5mC]*dT*dA*dT*dA*dA*d[5mC]*eT*eG*eT*eA*eA) [compound 547692]
% inhibition [4]: 47%

547011 (eG*eG*e[5mC]*eA*eG*dG*dA*dT*dT*dG*dG*dT*dG*dG*dT*eG*eG*eA*eA*eT; antisense) [compound 547011]
% inhibition [7]: 22%

547432 (e[5mC]*e[5mC]*e[5mC]*eA*eG*dT*dG*dT*dT*dA*d[5mC]*dA*d[5mC]*dA*dA*eT*e[5mC]*eT*e[5mC]*eA; antisense) [compound 547432]
% inhibition [3]: 90%

547676 (antisense e[5mC]*eT*eG*eT*e[5mC]*d[5mC]*dT*dA*dT*dA*dA*d[5mC]*dT*dA*dT*eA*eA*e[5mC]*eA*eA) [compound 547676]
% inhibition [8]: 41%

547591 (e[5mC]*e[5mC]*eT*eA*eT*dA*dA*d[5mC]*dT*dA*dT*dA*dA*d[5mC]*dA*eG*eT*eA*eT*e[5mC]; antisense) [compound 547591]
% inhibition [5]: 23%

547526 (antisense eG*e[5mC]*eG*eA*e[5mC]*d[5mC]*dT*d[5mC]*dG*d[5mC]*dA*dT*dT*dG*dT*e[5mC]*eA*eG*e[5mC]*e[5mC]) [compound 547526]
% inhibition (HepaRG cells, electroporation, 5,000 nM antisense oligonucleotide, approx. 24 hours, primer probe set RTS3454, relative to untreated control cells, Table 11): 59%

547010 (eG*eA*eA*eT*eT*dG*dG*dT*dG*dG*dT*dG*dG*dG*dA*eT*eT*eG*eG*eT; antisense) [compound 547010]
% inhibition [7]: 39%

547395 (eA*eA*eG*eT*eT*d[5mC]*dT*dT*dT*dT*dG*d[5mC]*dA*dG*dG*eT*eT*eA*eA*eA; antisense) [compound 547395]
% inhibition [9]: 15%

547348 (antisense eA*e[5mC]*eA*e[5mC]*eT*dG*d[5mC]*dT*dA*dA*d[5mC]*d[5mC]*dT*dT*dA*eG*eA*e[5mC]*eA*e[5mC]) [compound 547348]
% inhibition [2]: 83%

548720 (DNA eT*eG*eT*dA*d[5mC]*dT*dA*dG*dT*dT*dT*d[5mC]*d[5mC]*eT*eA*eT*eA; antisense) [compound 548720]
% inhibition [10]: 0%

547386 (eA*e[5mC]*eT*eT*eG*dG*dT*dG*dT*dG*d[5mC]*d[5mC]*dA*d[5mC]*dT*eT*eT*e[5mC]*eA*eG; antisense) [compound 547386]
% inhibition [9]: 78%

547752 (eG*eT*eG*eG*eT*dT*dG*dG*dT*dG*dG*d[5mC]*dG*dG*dG*eA*eT*e[5mC]*eG*eG; antisense) [compound 547752]
% inhibition [7]: 41%

548724 (DNA eT*e[5mC]*eA*d[5mC]*dT*dG*dT*dA*d[5mC]*dT*dA*dG*dT*eT*eT*e[5mC]*e[5mC]; antisense) [compound 548724]
% inhibition [10]: 61%

547466 (antisense eG*eT*eA*eT*eA*dA*dA*dT*dT*dG*dT*dG*d[5mC]*dT*dT*eG*eT*eG*eT*e[5mC]) [compound 547466]
% inhibition [11]: 82%
% inhibition [12]: 43%

547684 (antisense eT*eA*eA*e[5mC]*eT*dA*dT*dA*dT*d[5mC]*dA*d[5mC]*dT*dG*dT*e[5mC]*e[5mC]*eT*eA*eT) [compound 547684]
% inhibition [4]: 43%

547654 (eT*eA*eT*e[5mC]*eA*d[5mC]*dT*dG*dT*dA*d[5mC]*d[5mC]*dT*dA*dT*eA*eA*e[5mC]*eA*eG; antisense) [compound 547654]
% inhibition [8]: 53%

547480 (antisense eT*eT*e[5mC]*eT*eT*dT*dA*dT*dA*dG*d[5mC]*d[5mC]*dA*dG*d[5mC]*eA*e[5mC]*eA*eG*eA) [compound 547480]
% inhibition [11]: 60%
% inhibition [12]: 49%

547730 (eG*eA*eT*eT*eG*dG*dT*dG*dG*dT*dG*dG*dG*dA*dT*eT*eG*eG*eT*eG; antisense) [compound 547730]
% inhibition [7]: 60%

546763 (eG*e[5mC]*eT*eT*e[5mC]*d[5mC]*d[5mC]*d[5mC]*dA*dA*dT*dA*d[5mC]*dT*dT*eG*e[5mC]*eT*eG*eG; antisense) [compound 546763]
% inhibition [1]: 84%

546969 (eA*eT*e[5mC]*e[5mC]*eA*dA*d[5mC]*d[5mC]*dT*d[5mC]*dT*d[5mC]*dT*d[5mC]*d[5mC]*e[5mC]*eT*eA*eT*e[5mC]; antisense) [compound 546969]
% inhibition [4]: 53%

546495 (eT*eG*e[5mC]*eA*eT*dA*d[5mC]*dT*d[5mC]*dG*d[5mC]*d[5mC]*dT*dT*dT*eG*eT*eG*eA*e[5mC]; antisense) [compound 546495]
% inhibition [6]: 65%

546879 (eT*eT*eT*e[5mC]*e[5mC]*dT*dA*dT*dA*dA*d[5mC]*dA*dG*dT*dA*eT*e[5mC]*eA*e[5mC]*eT; antisense) [compound 546879]
% inhibition [5]: 42%

546281 (eG*eT*eA*eA*e[5mC]*d[5mC]*dA*dG*dA*dG*d[5mC]*dT*d[5mC]*d[5mC]*d[5mC]*eT*eT*eG*eT*eG; antisense) [compound 546281]
% inhibition [3]: 85%

547080 (eG*eT*eG*e[5mC]*eA*dA*dG*dA*d[5mC]*d[5mC]*dT*dT*dG*d[5mC]*dT*eT*eG*e[5mC]*e[5mC]*eA; antisense) [compound 547080]
% inhibition [7]: 54%

546294 (antisense eG*eT*e[5mC]*e[5mC]*eT*dA*dT*dG*dA*dG*dT*dG*dA*d[5mC]*d[5mC]*e[5mC]*eT*e[5mC]*e[5mC]*eA) [compound 546294]
% inhibition [3]: 72%

547476 (antisense e[5mC]*eA*eT*eT*eT*dG*dT*dT*dA*d[5mC]*d[5mC]*dA*dA*dA*dG*eG*eA*eA*eT*eA) [compound 547476]
% inhibition [11]: 75%
% inhibition [12]: 71%

546150 (e[5mC]*eA*eT*e[5mC]*e[5mC]*d[5mC]*d[5mC]*dA*d[5mC]*d[5mC]*dT*d[5mC]*dT*dG*dA*eA*eG*eA*eA*eG; antisense) [compound 546150]
% inhibition (HepaRG cells, electroporation with 5,000 nM antisense oligonucleotide, approximately 24 hours, PKK mRNA by RT-PCR (RTS3454), relative to untreated control cells, Table 5 experiment): 58%
